Data taken from PubChem BioAssay (NCI).
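Tested at 5 concentrations; 48 h exposure; 96-well plates; endpoints linearly interpolated, else capped at highest concentration. The concentration for 50% growth inhibition is given as GI50. At the TGI there is no net growth.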

Experiments:
Experiment in all cases: growth of human tumour cells (NCI), 48 h
SNB-19 CNS = test system: SNB-19 CNS
BT-549 breast = test system: BT-549 breast
CAKI-1 renal = test system: CAKI-1 renal
SK-OV-3 ovarian = test system: SK-OV-3 ovarian
SK-MEL-2 melanoma = test system: SK-MEL-2 melanoma
NCI-H522 lung = test system: NCI-H522 lung
IGROV1 ovarian = test system: IGROV1 ovarian
UACC-257 melanoma = test system: UACC-257 melanoma
786-0 renal = test system: 786-0 renal
HT29 colon = test system: HT29 colon
MALME-3M melanoma = test system: MALME-3M melanoma
UO-31 renal = test system: UO-31 renal
SN12C renal = test system: SN12C renal
SNB-75 CNS = test system: SNB-75 CNS
MDA-MB-231 breast = test system: MDA-MB-231 breast
SF-268 CNS = test system: SF-268 CNS
HS 578T breast = test system: HS 578T breast
ACHN renal = test system: ACHN renal
RPMI-8226 leukemia = test system: RPMI-8226 leukemia
K-562 leukemia = test system: K-562 leukemia
M14 melanoma = test system: M14 melanoma
A498 renal = test system: A498 renal
HCT-15 colon = test system: HCT-15 colon
HL-60(TB) leukemia = test system: HL-60(TB) leukemia
DU-145 prostate = test system: DU-145 prostate
CCRF-CEM leukemia = test system: CCRF-CEM leukemia
HCT-116 colon = test system: HCT-116 colon
MOLT-4 leukemia = test system: MOLT-4 leukemia
COLO 205 colon = test system: COLO 205 colon

Question: How did the GI50 (SNB-19 CNS) turn out when Cc1nn(-c2ccccc2)c(-n2ccnc2)c1/C=N/Nc1nc(-c2ccc(Cl)c(Cl)c2)cs1 was run?
Answer: 16.2 µM

Question: What about the TGI (SNB-19 CNS) of the same compound?
Answer: 92.3 µM

Question: What about the GI50 (BT-549 breast) of the same compound?
Answer: 5.88 µM

Question: What about the TGI (BT-549 breast) of the same compound?
Answer: 45 µM

Question: And the GI50 (CAKI-1 renal)?
Answer: 5.55 µM

Question: What about the TGI (CAKI-1 renal) of the same compound?
Answer: 20 µM

Question: What about the GI50 (SK-OV-3 ovarian) of the same compound?
Answer: 23.5 µM

Question: And the TGI (SK-OV-3 ovarian)?
Answer: 69.4 µM

Question: And the GI50 (SK-MEL-2 melanoma)?
Answer: 17.5 µM

Question: What about the TGI (SK-MEL-2 melanoma) of the same compound?
Answer: 50.8 µM

Question: And the GI50 (NCI-H522 lung)?
Answer: 13.4 µM

Question: And the TGI (NCI-H522 lung)?
Answer: 68.1 µM

Question: What about the GI50 (IGROV1 ovarian) of the same compound?
Answer: 6.07 µM

Question: And the TGI (IGROV1 ovarian)?
Answer: 26.2 µM

Question: What about the GI50 (UACC-257 melanoma) of the same compound?
Answer: 17.7 µM

Question: What about the TGI (UACC-257 melanoma) of the same compound?
Answer: 85.3 µM

Question: What about the GI50 (786-0 renal) of the same compound?
Answer: 3.21 µM

Question: And the TGI (786-0 renal)?
Answer: 13.3 µM

Question: And the GI50 (HT29 colon)?
Answer: 4.99 µM

Question: What about the TGI (HT29 colon) of the same compound?
Answer: > 100 µM

Question: And the GI50 (MALME-3M melanoma)?
Answer: 1.95 µM

Question: What about the TGI (MALME-3M melanoma) of the same compound?
Answer: 9.21 µM

Question: What about the GI50 (UO-31 renal) of the same compound?
Answer: 2.3 µM

Question: And the TGI (UO-31 renal)?
Answer: 21.8 µM

Question: What about the GI50 (SN12C renal) of the same compound?
Answer: 4.2 µM

Question: And the TGI (SN12C renal)?
Answer: 20.1 µM

Question: And the GI50 (SNB-75 CNS)?
Answer: 1.66 µM

Question: And the TGI (SNB-75 CNS)?
Answer: 5.35 µM

Question: What about the GI50 (MDA-MB-231 breast) of the same compound?
Answer: 2.49 µM

Question: What about the TGI (MDA-MB-231 breast) of the same compound?
Answer: 11.2 µM

Question: And the GI50 (SF-268 CNS)?
Answer: 9.37 µM

Question: What about the TGI (SF-268 CNS) of the same compound?
Answer: 37.5 µM

Question: What about the GI50 (HS 578T breast) of the same compound?
Answer: 2.95 µM

Question: And the TGI (HS 578T breast)?
Answer: 28.9 µM

Question: What about the GI50 (ACHN renal) of the same compound?
Answer: 3.97 µM

Question: And the TGI (ACHN renal)?
Answer: 16.9 µM

Question: And the GI50 (RPMI-8226 leukemia)?
Answer: 0.65 µM

Question: And the TGI (RPMI-8226 leukemia)?
Answer: 8.83 µM

Question: And the GI50 (K-562 leukemia)?
Answer: 2.49 µM

Question: What about the TGI (K-562 leukemia) of the same compound?
Answer: > 100 µM

Question: What about the GI50 (M14 melanoma) of the same compound?
Answer: 4.11 µM

Question: And the TGI (M14 melanoma)?
Answer: 30.6 µM

Question: And the GI50 (A498 renal)?
Answer: 7.98 µM

Question: And the TGI (A498 renal)?
Answer: 35.9 µM

Question: And the GI50 (HCT-15 colon)?
Answer: 4.09 µM

Question: What about the TGI (HCT-15 colon) of the same compound?
Answer: > 100 µM

Question: What about the GI50 (HL-60(TB) leukemia) of the same compound?
Answer: 6.91 µM

Question: What about the TGI (HL-60(TB) leukemia) of the same compound?
Answer: > 100 µM

Question: What about the GI50 (DU-145 prostate) of the same compound?
Answer: 3.15 µM

Question: What about the TGI (DU-145 prostate) of the same compound?
Answer: 13.3 µM

Question: And the GI50 (CCRF-CEM leukemia)?
Answer: 3.96 µM

Question: What about the TGI (CCRF-CEM leukemia) of the same compound?
Answer: > 100 µM

Question: What about the GI50 (HCT-116 colon) of the same compound?
Answer: 1.9 µM

Question: What about the TGI (HCT-116 colon) of the same compound?
Answer: 4.75 µM

Question: What about the GI50 (MOLT-4 leukemia) of the same compound?
Answer: 7.33 µM

Question: What about the TGI (MOLT-4 leukemia) of the same compound?
Answer: > 100 µM

Question: What about the GI50 (COLO 205 colon) of the same compound?
Answer: 4.46 µM
